From PubChem BioAssay AID1508612

Experiment: passive permeability, PAMPA, ADME assay (AID 1508612)
Details: pH 7.4, 30.0 min, 50.0 µM

| Structure (SMILES) | Papp [×10⁻⁶ cm/s] |
| --- | --- |
| Clc1ccc2ncc(-c3cccc(NC4CCNC4)n3)n2c1 (centres undefined) | 332 |
| CCOC(=O)CCNc1cc(N2CCc3ccccc3CC2)nc(-c2cccnc2)n1 | 951 |
| CCCc1cc(C)[nH]c(=O)c1CNC(=O)c1cc(-c2ccc(N3CCN(C(C)C)CC3)nc2)cc2c1cnn2C(C)C | > 1000 |
| COc1ccc(-c2nc3ccccc3c(=O)n2Cc2ccco2)cc1COc1ccc(NC(C)=O)cc1 | 8.72 |
| Fc1ccc(-c2csc3ncnc(Sc4nnnn4C4CC4)c23)cc1 | 834 |
| CCCCOc1ccc(C(=O)N2CCC(c3n[nH]c(=O)n3-c3ccc(C)cc3)CC2)cc1 | 892 |
| COc1cc2nc(N3CCCC3)nc(NCCCCCN3CCCC3)c2cc1OC | 2.4 |
| O=C1Nc2ccccc2/C1=C\c1ccc([N+](=O)[O-])cc1 | 455 |
| O=C(Cc1c[nH]c2ncc(-c3ccc(Cl)cc3)cc12)NCc1cccnc1 | > 1000 |
| CC(=O)c1c(C)[nH]c(C(=O)Nc2ccc(C)c(S(=O)(=O)N3CCCCCC3)c2)c1C | 792 |
| O=C(NCc1ccccc1)C1CCN(c2nc(-c3ccc(Br)cc3)cs2)CC1 | 23.2 |
| O=C(Nc1nc(-c2ccccc2)cs1)c1ccncc1NS(=O)(=O)c1cccc2cccnc12 | 445 |
| Cc1cc(S(=O)(=O)Nc2cnccc2C(=O)Nc2nc(-c3ccccc3)cs2)c(C)o1 | 768 |
| COc1ccc(NC(=O)c2c(C)cccc2C)cc1S(=O)(=O)Nc1ccc(Br)cc1 | 581 |
| CNc1oc(-c2cccc(-c3ccccc3)c2)nc1C#N | 918 |
| CC(=O)c1c(C)[nH]c(C(=O)Nc2cccc([S+](=O)([O-])N3CC[C@@H](F)C3)c2)c1C | 199 |
| CCCN(C(=O)c1sc2nc3n(c(=O)c2c1C)CCCC3)c1ccccc1C | > 1000 |
| COc1ccc(C(=O)NC2CCN(c3cnn(CC4CC4)c(=O)c3)CC2)c(OC)n1 | 550 |
| CN(C)c1cccc(-c2cnc(N3CCC(C(N)=O)CC3)nc2)c1 | 273 |
| CCNC(=O)c1ccc(-c2ccc3ncnc(NCC4CCCO4)c3c2)o1 (centres undefined) | 146 |
| COc1ccc(C2c3c(ncn(CCN4CCOCC4)c3=N)Oc3ccc4ccccc4c32)cc1OC (centres undefined) | > 1000 |
| Cc1cc(-c2nnc3n2CCCCC3)c(C)n1-c1cccc(Cl)c1 | > 1000 |
| COc1ccc(-c2nc3c(c(SCC(=O)Nc4ccc(C(=O)O)cc4)n2)Cc2ccccc2O3)cc1 | 1.18 |
| O=c1c(-c2cccs2)ccc2n1C[C@H]1C[C@@H]2CN(C2CCOCC2)C1 | 460 |
| COc1ccc(-c2ccc3nc(-c4ccccc4C)oc3c2)c(OC)c1OC | < 1 |
| Cc1cc(-c2nnc3n2CCCCC3)c(C)n1-c1ccc([N+](=O)[O-])cc1 | 20.8 |

| Structure (SMILES) | Papp [×10⁻⁶ cm/s] |
| --- | --- |
| O=C(C1CC(=O)N(c2n[nH]c3ccccc23)C1)N1CCC(c2noc3cc(F)ccc23)CC1 (centres undefined) | 726 |
| CN(C)C(=O)c1nc(-c2ccc(Cl)nc2)c2ccccn12 | > 1000 |
| CCOC(=O)c1nc(Nc2ccc(N3CCC(C)CC3)cc2)c2ccccc2n1 | > 1000 |
| N=c1c2c(n(Cc3ccccc3)c3c1CCC3)CCC2 | < 1 |
| Cc1ccc(-c2nc(C)c(C(=O)Nc3ccc4c(c3)C(=O)N3CCC[C@H]3C(=O)N4)s2)cc1 | 976 |
| N#Cc1ccc(N2N=C3c4ccc(C(=O)O)cc4CC[C@@H]3[C@@H]2C2CCCC2)cc1Cl | 272 |
| Cc1cccc(-n2ncc3c2CCCC3NC(=O)c2c(F)ccc(F)c2F)c1C (centres undefined) | 916 |
| Cc1c(-c2cccc3c(CCCOc4cccc5ccccc45)c(C(=O)O)n(Cc4cccnc4)c23)c(COc2ccc(N3CCN([S+](=O)([O-])N(C)C)CC3)cc2)nn1C | 244 |
| COc1ccc(C(=O)NC2CCCc3c2[nH]c2c(Cl)cccc32)cc1OC (centres undefined) | 139 |
| O=C(Nc1ccccc1)C1CC(=O)N(c2n[nH]c3cc(Br)ccc23)C1 (centres undefined) | 1.1 |
| O=C(c1ccc2ccccc2c1)N1CCN(c2ccc(O)cc2)CC1 | 527 |
| CC1=Nc2cc(C(=O)NCc3ccccc3Cl)ccc2Sc2c(C)ccc(C)c21 | 161 |
| COc1ccc(Cn2c(C(=O)O)c(CNCc3ccco3)c3ccc(C)cc32)cc1 | 654 |
| CCCCn1cnc2cc(NC(=O)c3cc(OC)c(OC)c(OC)c3)ccc21 | 693 |
| CN1C(=O)c2ccccc2[S@](=O)c2ccc(C(=O)NCc3ccc(Cl)cc3)cc21 | > 1000 |
| c1ccc2c(Nc3ccon3)nc(-c3ccncc3)nc2c1 | 247 |
| c1ccc(-c2cn[nH]c2)cc1 | 288 |
| NC(=O)C1CCN(c2nc(-c3cccc([N+](=O)[O-])c3)cs2)CC1 | 568 |
| Cc1cc(NC(=O)c2ccc(NC(=O)Cc3ccc(Cl)c(Cl)c3)cc2)no1 | > 1000 |
| COc1cccc(CNc2ccc(C(=O)Nc3nccs3)cc2)c1O | > 1000 |
| O=C1Nc2c(Cl)cccc2/C1=C\c1cc(Cl)c(O)c(Cl)c1 | 58.8 |
| COc1cc(Nc2nc(-c3ccncc3)nc3ccccc23)ccc1N1CCN(C)CC1 | > 1000 |
| Fc1ccc(N2CCCN(CC3[C@H]4CNC[C@@H]34)CC2)cc1 (some centres undefined) | 196 |
| NC(=O)C1CCN(c2nc(-c3ccccc3C(F)(F)F)cs2)CC1 | 544 |
| NC(=O)C1CCN(c2cc(-c3ccc4c(c3)OCCCO4)ncn2)CC1 | 37 |
| CNc1cc(-c2nc(Nc3ccc(F)c(F)c3)c3ccccc3n2)ccn1 | 257 |

| Structure (SMILES) | Papp [×10⁻⁶ cm/s] |
| --- | --- |
| Cc1cccc(-n2cnc3cc(C(=O)N4CCCC(C)(C)C4)ccc32)c1 | > 1000 |
| O=[N+]([O-])c1ccc(/C=N/n2c(CO)nc3ccccc32)s1 | 269 |
| CCN(CC)S(=O)(=O)c1ccc(N2CCCC2)c(NS(=O)(=O)c2ccccc2)c1 | 396 |
| NC(=O)C1CCN(c2nc(-c3ccccc3Br)cs2)CC1 | 462 |
| O=C(Nc1ccc2c(N3CCOCC3)ncnc2c1)c1cccc(Br)c1 | > 1000 |
| Cc1nc(-c2ccco2)cc([C@H]2CN3CC[C@H]2C[C@@H]3CNC(=O)NC2CCCCC2)n1 | 475 |
| Fc1cc(Nc2nc(-c3ccncc3)nc3ccccc23)ccc1-c1ccncc1 | 15.4 |
| O=C1Nc2ccccc2/C1=C/c1ccnc2ccccc12 | > 1000 |
| CCCCN(CC)CCNC(=O)c1cc2c(-c3ccc(Cl)cc3)nn(C)c2s1 | > 1000 |
| Cc1cc(-c2nnc3n2CCCCC3)c(C)n1-c1ccccc1 | 581 |
| N#CC1CCN(c2nc(-c3ccc(Br)cc3)cs2)CC1 | 671 |
| COc1ccc(NC(=O)c2cccnc2C)cc1S(=O)(=O)Nc1ccc(Br)cc1 | 522 |
| Oc1ccc(-c2nc(C3CC3)nc3c2CCN(Cc2ccc(F)cc2)CC3)cc1 | > 1000 |
| O=C(Nc1ccc(Cl)c(S(=O)(=O)N2CCOCC2)c1)c1ccc(S(=O)(=O)N2CCOCC2)cc1 | 936 |
| O=C(O)CNC(=O)c1c(O)c2ccccc2n(Cc2ccccc2)c1=O | 14.6 |
| CSc1ccc(/C=C/c2nc3ccccc3n2S(=O)(=O)c2ccc(Br)cc2)cc1 | > 1000 |
| CCNC(=O)N1CCCN(c2ccc(C(=O)NCCc3ccc(Cl)cc3Cl)cc2NC(=O)c2cccc(Cl)c2)CC1 | 202 |
| O=C(Nc1ccc([S+](=O)([O-])Nc2nccs2)cc1)c1ccccn1 | 3 |
| CNC(=O)c1ccc(C)c(-n2c(C)cc(OCc3ccc(F)cc3F)c(Br)c2=O)c1 | 695 |
| Cc1cc(C)nc(NC(=S)N2CCN(c3ccc(Cl)cc3F)CC2)c1 | > 1000 |
| CC(C)CC(C)NC(=O)c1noc(-c2ccc[nH]c2=O)n1 (centres undefined) | 16.6 |
| CCOC(=O)N1CCN(Cc2nc3c(c(=O)n(C)c(=O)n3C)n2Cc2cccc(C)c2)CC1 | 477 |
| COc1ccc(Nc2cc(C)nc(-n3nc(C)cc3C)n2)cc1Cl | > 1000 |
| Cc1ccc(S(=O)(=O)Nc2cc(Cl)c(Cl)cc2C(=O)Nc2nc(-c3ccccc3)cs2)cc1 | 5 |
| COc1ccc(-c2csc(N3CCC(C(N)=O)CC3)n2)cc1 | 646 |
| Cc1cn(CCN2CCN(c3ccccc3-c3cc(C#N)cc(C(=O)NCCCN4CCCC4)c3)CC2)c2ccccc12 | < 1 |

| Structure (SMILES) | Papp [×10⁻⁶ cm/s] |
| --- | --- |
| O=C(NC1CC1)c1nc(-c2cccnc2)c2cnccn12 | 31.8 |
| O=S(=O)(Nc1nccs1)c1ccc(Nc2nc(-c3ccc(F)cc3)cs2)cc1 | 10.6 |
| CN1CCN(C(=O)c2ccc3cc(CCNc4ncnc5ccc(C#N)cc45)ccc3c2)CC1 | 545 |
| CSc1ccc(/C=C/c2nc3ccccc3n2S(=O)(=O)c2cccc(Cl)c2)cc1 | 911 |
| COc1ccc2cc1Oc1ccc(cc1)C[C@@H]1c3c(cc(OC)c4c3Oc3cc5c(cc3O4)CCN[C@H]5C2)CCN1C | 217 |
| Fc1cc(Nc2nc(-c3ccncc3)nc3ccccc23)ccc1-c1ccc2[nH]ncc2c1 | 42 |
| CC(C)(C)c1ccc(-c2nc(SCCCOc3ccccc3)n3[nH]c(=O)cc3n2)cc1 | 10.1 |
| Cc1sc2c(c1C)C(c1ccc(Cl)cc1)=N[C@@H](CC(=O)OC(C)(C)C)c1nnc(C)n1-2 | > 1000 |
| Cn1c(=O)c2c(-c3ccc(Cl)cc3)n(CCc3ccccc3)cc2n(C)c1=O | > 1000 |
| Fc1cccc(Nc2nc(-c3ccncc3)nc3ccccc23)c1F | 799 |
| Cc1ccccc1C(=O)N1CCc2cc(-c3nc(NC(=O)Cc4ccc5ccccc5c4)sc3C)ccc21 | < 1 |
| O=C(Nc1nc(-c2ccccc2)cs1)c1ccncc1NS(=O)(=O)c1cccnc1 | 50.8 |
| CS(=O)(=O)c1cccc(-c2csc(N3CCC(C(N)=O)CC3)n2)c1 | 49.1 |
| Cc1nc(N)nc2ccccc12 | 69.7 |
| COc1cccc(N2CCN(c3ncc4c(n3)CCN(Cc3ccc(Br)cc3)C4)CC2)c1 | 25 |
| O=C(NCCc1nc2ccccc2n1CCO)C1CCCCC1 | 85.4 |
| CC(C)C[C@H]1C(=O)N2CCC[C@H]2[C@]2(O)O[C@](NC(=O)[C@@H]3C=C4c5cccc6[nH]c(Br)c(c56)C[C@H]4N(C)C3)(C(C)C)C(=O)N12 | 876 |
| COc1ccc(NC(=O)c2c(C)cccc2C)cc1[S+](=O)([O-])N(C)C | 196 |
| CCN1CCN(c2ncc3c(n2)CCN(Cc2cc(Br)cs2)C3)CC1 | 787 |
| O=C1CCCC2=C1C(c1[nH]ncc1Cl)N=C(Nc1nc3c(Cl)cccc3o1)N2 (centres undefined) | 162 |
| Fc1cc(Nc2nc(-c3ccncc3)nc3ccccc23)ccc1-n1cncn1 | 171 |
| CCOC(=O)c1ccc(NC(=O)CSc2nc3c(cc2C#N)N2CCC3CC2)cc1 | 422 |
| CN(C)c1ccccc1-c1csc(N2CCC(C(N)=O)CC2)n1 | 331 |
| COc1ccccc1CNc1ccc(N2CCCCC2)cc1 | > 1000 |
| O=[S+]([O-])(Nc1ccc(N2CCNCC2)cc1)c1ccc(NCc2cccc(Cl)c2O)cc1 | 7.65 |
| Cc1cc(C)nc(NC(=S)N2CCN(c3cc(C(F)(F)F)nc4ccc(C(F)(F)F)cc34)CC2)c1 | 636 |
